Data published in patent US11179391B2, “Compound with kinase inhibitory activity and preparation method and use thereof” (priority 2017, dated 2021).

Tests used:
[1] = molecular target: CDK9/cyclinTl (Homo sapiens, UniProt P50750); test: Determination of CDK activity (Caliper mobility shift, FAM-P8 peptide): CDK9; assay type: biochemical; settings: CDK9/cyclinTl; read-out: CDK9 enzymatic inhibitory activity (IC50)
[2] = molecular target: CDK6/cycD3 (Homo sapiens, UniProt Q00534); test: Determination of CDK activity (Caliper mobility shift, FAM-P8 peptide): CDK6; assay type: biochemical; settings: CDK6/cycD3; read-out: CDK6 enzymatic inhibitory activity (IC50)
Sequence of CDK6/cycD3 (Q00534 whole entry): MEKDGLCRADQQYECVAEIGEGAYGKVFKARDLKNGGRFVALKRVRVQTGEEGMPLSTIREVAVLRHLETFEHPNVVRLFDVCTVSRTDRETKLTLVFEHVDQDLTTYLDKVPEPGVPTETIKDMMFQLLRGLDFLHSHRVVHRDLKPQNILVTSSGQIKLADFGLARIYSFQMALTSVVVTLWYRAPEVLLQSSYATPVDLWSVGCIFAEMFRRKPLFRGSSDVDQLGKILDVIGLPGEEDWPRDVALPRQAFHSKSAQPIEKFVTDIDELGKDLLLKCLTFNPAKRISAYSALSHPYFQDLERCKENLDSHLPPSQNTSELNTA
Sequence of CDK6/cycD3 (P30281 whole entry partner): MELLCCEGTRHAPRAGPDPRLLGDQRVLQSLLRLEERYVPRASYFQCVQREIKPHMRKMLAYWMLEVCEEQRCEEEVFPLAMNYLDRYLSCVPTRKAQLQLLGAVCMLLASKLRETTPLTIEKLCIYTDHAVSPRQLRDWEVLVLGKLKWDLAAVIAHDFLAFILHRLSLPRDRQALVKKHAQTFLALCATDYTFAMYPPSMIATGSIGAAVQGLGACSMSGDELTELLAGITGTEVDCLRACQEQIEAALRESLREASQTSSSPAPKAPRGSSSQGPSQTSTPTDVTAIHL
Procedure, shortened: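 GST-CDK6(1-326)/cycD3 with FAM-P8 peptide and ATP, after 10 min room-temperature enzyme–compound preincubation; reaction at 28 °C, then EDTA stop. Substrate conversion read by Caliper mobility shift; inhibition from no-compound and no-enzyme controls, IC50 fitted over 10-point dilution in DMSO.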

[3] = molecular target: CDK1/CyclinB (Homo sapiens, UniProt P06493); test: Determination of CDK activity (Caliper mobility shift, FAM-P8 peptide): CDK1; assay type: biochemical; settings: CDK1/CyclinB; read-out: CDK1 enzymatic inhibitory activity (IC50)
Sequence of CDK1/CyclinB (P06493 whole entry): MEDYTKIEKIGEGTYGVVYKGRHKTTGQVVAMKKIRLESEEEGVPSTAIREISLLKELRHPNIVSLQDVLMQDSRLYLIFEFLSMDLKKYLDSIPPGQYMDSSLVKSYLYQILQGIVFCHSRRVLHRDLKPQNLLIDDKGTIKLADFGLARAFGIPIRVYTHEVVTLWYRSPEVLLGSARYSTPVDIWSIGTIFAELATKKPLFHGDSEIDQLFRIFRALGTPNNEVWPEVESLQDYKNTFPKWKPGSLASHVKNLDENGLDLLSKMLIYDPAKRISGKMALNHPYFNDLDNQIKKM
Sequence of CDK1/CyclinB (P14635 whole entry partner): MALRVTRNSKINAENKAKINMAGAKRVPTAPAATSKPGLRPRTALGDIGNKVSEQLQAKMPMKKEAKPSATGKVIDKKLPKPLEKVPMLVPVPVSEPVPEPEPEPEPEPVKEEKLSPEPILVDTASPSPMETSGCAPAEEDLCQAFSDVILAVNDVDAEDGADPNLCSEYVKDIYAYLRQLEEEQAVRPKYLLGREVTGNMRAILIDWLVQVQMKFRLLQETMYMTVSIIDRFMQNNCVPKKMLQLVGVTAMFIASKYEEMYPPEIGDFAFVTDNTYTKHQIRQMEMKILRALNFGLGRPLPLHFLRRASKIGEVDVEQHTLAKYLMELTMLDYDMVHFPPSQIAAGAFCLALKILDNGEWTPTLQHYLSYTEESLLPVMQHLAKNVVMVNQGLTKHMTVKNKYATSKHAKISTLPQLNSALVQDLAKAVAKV

[4] = molecular target: CDK4/CycD3 (Homo sapiens, UniProt P11802); test: Determination of CDK activity (Caliper mobility shift, FAM-P8 peptide): CDK4; assay type: biochemical; settings: CDK4/CycD3; read-out: CDK4 enzymatic inhibitory activity (IC50)
Sequence of CDK4/CycD3 (P11802 whole entry): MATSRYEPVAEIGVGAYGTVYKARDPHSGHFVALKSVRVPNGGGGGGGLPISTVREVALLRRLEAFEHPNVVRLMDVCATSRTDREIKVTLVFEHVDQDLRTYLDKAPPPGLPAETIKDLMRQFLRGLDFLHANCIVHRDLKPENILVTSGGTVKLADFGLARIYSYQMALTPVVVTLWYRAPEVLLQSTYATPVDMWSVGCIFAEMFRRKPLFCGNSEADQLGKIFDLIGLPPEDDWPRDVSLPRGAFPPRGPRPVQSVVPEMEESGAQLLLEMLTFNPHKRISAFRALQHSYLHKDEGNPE
Sequence of CDK4/CycD3 (P30281 whole entry partner): as the sequence (P30281 whole entry partner) above
Procedure, shortened: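 GST-CDK4(1-303)/GST-CycD3(1-292) was preincubated with compound for 10 min at room temperature, then FAM-P8 peptide and ATP were added; the reaction ran at 28 °C and was stopped with EDTA-containing stop buffer. Peptide conversion was read by Caliper mobility shift. A 10-point dilution series was fitted for IC50.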

[5] = tested on: Human leukemia MV4-11 cells; test: Pharmacodynamic study on mouse MV4-11 model (subcutaneous xenograft); assay type: in vivo, BALB/c nude mice; settings: for tumor inhibition effect compared with Abemaciclib (in words) / Tumor volume (day 0) / Tumor volume (day 21) / T/C relative tumor proliferation rate / TGI tumor growth inhibition rate: MV4-11 model, 50 mg/kg PO × 21 days; for Tumor volume (day 0): baseline at start of dosing; for Tumor volume (day 0) / Tumor volume (day 21) / T/C relative tumor proliferation rate / TGI tumor growth inhibition rate: mesylate; for T/C relative tumor proliferation rate / TGI tumor growth inhibition rate: day 21; for inhibitory effect on the tumor growth (in words): MV4-11 nude mouse model, 50 mg/kg, continuous PO administration for 21 days

Sequence of CDK9/cyclinTl (P50750 whole entry): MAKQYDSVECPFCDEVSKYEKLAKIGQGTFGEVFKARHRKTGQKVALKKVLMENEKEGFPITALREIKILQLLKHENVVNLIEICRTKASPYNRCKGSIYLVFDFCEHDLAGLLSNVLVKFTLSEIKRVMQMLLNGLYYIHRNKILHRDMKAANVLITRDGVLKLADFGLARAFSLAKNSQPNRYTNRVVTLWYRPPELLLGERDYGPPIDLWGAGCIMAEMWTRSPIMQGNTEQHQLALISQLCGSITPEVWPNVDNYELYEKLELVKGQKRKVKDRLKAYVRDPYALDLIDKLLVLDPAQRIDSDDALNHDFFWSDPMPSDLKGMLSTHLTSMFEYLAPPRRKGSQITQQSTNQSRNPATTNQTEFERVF
Sequence of CDK9/cyclinTl (O60563 whole entry partner): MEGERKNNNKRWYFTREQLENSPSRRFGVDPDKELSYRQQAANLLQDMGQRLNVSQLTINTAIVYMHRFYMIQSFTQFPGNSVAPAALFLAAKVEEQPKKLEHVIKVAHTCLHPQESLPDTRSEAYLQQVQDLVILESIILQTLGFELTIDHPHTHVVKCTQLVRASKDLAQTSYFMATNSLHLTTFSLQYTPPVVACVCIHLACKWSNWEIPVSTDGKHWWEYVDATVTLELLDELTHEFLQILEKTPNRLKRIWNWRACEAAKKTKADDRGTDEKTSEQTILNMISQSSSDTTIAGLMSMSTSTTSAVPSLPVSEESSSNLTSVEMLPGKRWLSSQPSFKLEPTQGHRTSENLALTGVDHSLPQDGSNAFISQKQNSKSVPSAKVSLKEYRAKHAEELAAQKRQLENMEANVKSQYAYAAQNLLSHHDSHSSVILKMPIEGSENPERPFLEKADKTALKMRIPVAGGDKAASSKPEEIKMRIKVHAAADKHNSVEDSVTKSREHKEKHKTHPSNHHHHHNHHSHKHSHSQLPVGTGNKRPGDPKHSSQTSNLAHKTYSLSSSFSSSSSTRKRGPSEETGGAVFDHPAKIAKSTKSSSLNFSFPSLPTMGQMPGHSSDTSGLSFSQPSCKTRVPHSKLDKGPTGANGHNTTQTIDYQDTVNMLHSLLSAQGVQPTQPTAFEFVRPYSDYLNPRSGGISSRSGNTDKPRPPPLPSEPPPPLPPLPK

| Compound | IC50 [1] [nM] | IC50 [2] [nM] | IC50 [3] [nM] | IC50 [4] [nM] | tumor inhibition effect compared with Abemaciclib (in words) [5] | Tumor volume (day 0) [5] [mm^3] | Tumor volume (day 21) [5] [mm^3] | T/C relative tumor proliferation rate [5] [%] | TGI tumor growth inhibition rate [5] [%] | inhibitory effect on the tumor growth (in words) [5] |
| --- | --- | --- | --- | --- | --- | --- | --- | --- | --- | --- |
| CCN1CCC(=Cc2ccc(Nc3ncc(F)c(-c4cc(F)c5nc(C)n(C(C)C)c5c4)n3)nc2)CC1 [Example 57, N-(5-((1-ethylpiperidin-4-ylidene)methyl)pyridin-2-yl)-5-fluoro-4-(4-fluoro-1-isopropyl-2-methyl-1H-benzo[d]imidazol-6-yl)pyrimidin-2-amine] | < 100 | < 100 | 100 to 500 | < 100 | equivalent to that of positive control compound Abemaciclib | 158 | 491 | 41 | 59 | good inhibitory effect |
| CCN1CCC(C(C)c2ccc(Nc3ncc(F)c(-c4cc(F)c5nc(C)n(C(C)C)c5c4)n3)nc2)CC1 (single isomer, unassigned) [Example 17, (R or S)—N-(5-(1-(1-ethylpiperidin-4-yl)ethyl)pyridin-2-yl)-5-fluoro-4-(4-fluoro-1-isopropyl-2-methyl-1H-benzo[d]imidazol-6-yl) pyrimidin-2-amine] | 100 to 500 | < 100 | 100 to 500 | < 100 | equivalent to that of positive control compound Abemaciclib | 158 | 463 | 38 | 62 | good inhibitory effect |
